Measurements reported in article PMC7249060, “The Antiproliferative Effects of Flavonoid MAO Inhibitors on Prostate Cancer Cells” (Molecules, 2020).

How the values were obtained:
LNCaP cells [1] = test: Viability screen assay, resazurin, 24 h; assay type: cell-based, human; settings: 50 μM, 90% viability as margin of cytotoxicity
Procedure: We examined the cytotoxic effects of all 20 synthesized KKRs on the three human PCa cell lines LNCaP, DU145, and PC3, after a 24 h exposure period. Non-toxic TAX was used for comparison. Briefly, cultured cells were seeded in black transparent bottom 96-well microplates at 50,000 cells/175-µL/well in experimental media (RPMI1640 for LNCaP, EMEM for DU145, and DMEM/F12K for PC3), supplied with 5% FBS and 1% P/S. Wells of media without cells were considered blanks and negative controls. The plates were incubated overnight at 37 °C in 5% CO2 to allow cell attachment. For each compound, a working solution of 8X KKR in sterile […] HEPES in HBSS pH buffer of 7.4 was prepared for a final concentration of 50 μM each. The three attached cell types were treated immediately with the related buffer being added to the control wells. A sterile fluorescence-based solution of the resazurin reagent of 0.5 mg/mL in HBSS was prepared. After 24 h, the cells were exposed to 15% v/v of the sterile resazurin reagent, and the plates were re-incubated for 4.5 h to allow redox reaction. All plates were read under 530/590-nm excitation/emission wavelengths using Bio-Tek Synergy HTX Multi-reader as a microplate fluorescence reader.

PC3 cells [2] = test: Antiproliferation screen assay, resazurin, 72 h; assay type: cell-based, human; settings: 50 μM
Procedure: (§1) In this screen, we examined the growth inhibitory effects of all synthesized KKRs on the three human PCa cell lines LNCaP, DU145, and PC3. The antiproliferative clinical drug TAX of 0.25 μM was used as a positive control. Additionally, different standards of MAO-Is and FLUT were tested for their effect on the LNCaP cells. Briefly, the procedures and materials used were the same as for the viability assay except for the following—cultured cells were seeded at 10,000 cells/175-µL/well related experimental media, and the resazurin solution was added after 72 h of incubation with the compounds of 50 μM each.

DU145 cells [3] = test: Antiproliferation screen assay, resazurin, 72 h; assay type: cell-based, human; settings: 50 μM
Procedure: as §1

LNCaP cells [4] = test: Antiproliferation screen assay, resazurin, 72 h; assay type: cell-based, human; settings: 50 μM
Procedure: as §1

hMAO-A = target: T1, hMAO-A (Homo sapiens, UniProt P21397); test: MAO-Glow luminescence screen of KKRs at 100 μM; assay type: biochemical; settings: 100 μM screen
T1 construct: purchased Sigma-Aldrich Co. (St. Louis, MO, USA)
T1 sequence (P21397 1-527): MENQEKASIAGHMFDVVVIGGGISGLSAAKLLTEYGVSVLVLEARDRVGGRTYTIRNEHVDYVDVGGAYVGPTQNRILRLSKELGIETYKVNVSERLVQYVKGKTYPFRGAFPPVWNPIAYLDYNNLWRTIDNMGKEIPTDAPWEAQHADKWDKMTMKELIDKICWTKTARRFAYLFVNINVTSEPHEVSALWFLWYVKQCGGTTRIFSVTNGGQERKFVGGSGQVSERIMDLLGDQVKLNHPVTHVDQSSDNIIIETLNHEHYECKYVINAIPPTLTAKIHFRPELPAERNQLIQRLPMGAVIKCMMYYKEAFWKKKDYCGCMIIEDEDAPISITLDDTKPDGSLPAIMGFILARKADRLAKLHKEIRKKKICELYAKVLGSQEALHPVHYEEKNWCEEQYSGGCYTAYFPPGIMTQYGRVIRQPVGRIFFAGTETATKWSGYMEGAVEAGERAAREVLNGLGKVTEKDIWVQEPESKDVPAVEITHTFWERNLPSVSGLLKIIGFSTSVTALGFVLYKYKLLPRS
Procedure: (§2) We optimized our control hMAO-A and hMAO-B isozymes reactions in the incubation condition, at 37 °C for 1 h, by performing a luminescence assay using the MAO-Glow™ kit. Upon arrival, each isozyme was diluted with 10 mM HEPES in cold HBSS of pH 7.4. Afterward, the diluted isozymes were kept at −80 °C until use. Enzyme concentration optimization was accomplished by testing ten 2X serially diluted hMAO-A and hMAO-B concentrations for a final range of 7.00–0.01 U/mL each. The tested isozymes were incubated with LDS of 40 and 4 μM for isozymes A and B, respectively (recommended by Promega protocol), and a maximum of used DMSO of 1% final concentration. Different isozyme concentrations reactions at their initial velocities were monitored. Consequently, their required concentrations were defined to be 0.44 U/mL each. Additionally, ten different LDS concentrations, ranging from 0.3–150 μM, were monitored for optimizing and validating the linearity of the initial reaction for the hMAO-A mode of action. Subsequently, we chose a saturated substrate of 75 μM as a required concentration for the hMAO-A enzyme kinetic reactions.
(§3) The inhibitory effects of the synthesized KKRs of hMAO-A and B were tested by measuring the decrease in arbitrary light units (ALU) signal produced by the optimized isozymes using the MAO-Glow™ Assay at 37 °C. In this assay, DMSO stock for each KKR compound was diluted with a reaction buffer of pH 7.4 to make a 4X working solution for a maximum final concentration of 100 μM and ≤1% DMSO. The experiments were run in the absence and presence of 4X the miscellaneous standards of MAO-BIs (DEP, PARG, and SAF) and MAO-AIs (PIRL and CLORG), with similar concentrations. In white opaque 96-well microplates, 12.5 μL of each compound was plated at RT and was followed by 25 μL of 2X cold hMAO-A or hMAO-B, for a final concentration of 0.44 U/mL. A related buffer substituted each isozyme to make the blank wells and substituted each compound to make the negative control wells. Following this, we added 12.5 μL of 4X LDS to make a final substrate concentration of 40- and 4-μM for hMAO-A and hMAO-B, respectively. All screen plates were incubated at 37 °C for 60 min. The plates of 50 μL/well were then taken out from the incubator, and their reactions were stopped by an equal volume of 50 μL of reporter luciferin detection reagent (RLDR). After 30 min, the luminescence signals for all plates were read on a Synergy HTX Multi-reader from Bio-Tek (Winooski, VT, USA).

hMAO-B = target: T2, hMAO-B (Homo sapiens, UniProt P27338); test: MAO-Glow luminescence screen of KKRs at 100 μM; assay type: biochemical; settings: 100 μM screen
T2 construct: purchased Sigma-Aldrich Co. (St. Louis, MO, USA)
T2 sequence (P27338 1-520): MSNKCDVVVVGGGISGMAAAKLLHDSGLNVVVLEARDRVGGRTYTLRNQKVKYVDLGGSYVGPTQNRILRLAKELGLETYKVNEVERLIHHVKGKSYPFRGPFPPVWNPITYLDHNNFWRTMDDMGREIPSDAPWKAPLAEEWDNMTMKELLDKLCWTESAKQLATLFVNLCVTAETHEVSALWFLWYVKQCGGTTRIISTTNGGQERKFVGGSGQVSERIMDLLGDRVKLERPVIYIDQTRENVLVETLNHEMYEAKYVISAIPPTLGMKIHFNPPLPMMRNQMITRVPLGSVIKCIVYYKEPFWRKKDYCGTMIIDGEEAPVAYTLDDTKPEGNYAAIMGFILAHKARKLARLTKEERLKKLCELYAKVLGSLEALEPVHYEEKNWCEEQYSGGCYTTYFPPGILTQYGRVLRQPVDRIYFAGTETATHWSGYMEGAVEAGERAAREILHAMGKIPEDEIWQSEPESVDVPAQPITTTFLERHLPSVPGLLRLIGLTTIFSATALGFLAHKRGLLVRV
Procedure: as §2, §3

PC3 cells [5] = test: Antiproliferation dose-response assay for 72 h; assay type: cell-based; settings: Homo sapiens, PC-3; PC3, 72 h, mean ± SEM of two experiments; read-out: antiproliferative IC50
Procedure: (§4) For the top effective KKRs, along with TAX, their potency to reduce the affected PCa cell line growth in a dose-dependent manner was determined using the resazurin fluorescence assay. We followed the same protocols and materials used for the antiproliferation screen assays (Section 4.3.2), with the following modifications. The maximum final KKR concentration used was 40 μM. The concentration of 8X of each KKR working solution in 1% HEPES 7.4 was serially diluted in a 3:1 ratio, compound to buffer, respectively. Each data set was collected from ten data points of 3.7–40 μM range. The control had the KKR substituted with buffer. The related IC50 averages were analyzed for the compounds that affected the cell lines the most.

DU145 cells [6] = test: Antiproliferation dose-response assay for 72 h; assay type: cell-based; settings: Homo sapiens, DU-145; DU145, 72 h, mean ± SEM of two experiments; read-out: antiproliferative IC50
Procedure: as §4

LNCaP cells [7] = test: Antiproliferation dose-response assay for 72 h; assay type: cell-based; settings: Homo sapiens, mean ± SEM of two experiments, read-out: antiproliferative IC50
Procedure: as §4

COc1cc(O)c(C(=O)/C=C/c2cc(OC)c(OC)c(OC)c2)c(OC)c1 [KKR17, (E)-1-(2-hydroxy-4,6-dimethoxyphenyl)-3-(3,4,5-trimethoxyphenyl)prop-2-en-1-one]
cytotoxicity / cell viability (LNCaP cells [1]): affected the LNCaP cells
antiproliferative effect in screen (PC3 cells [2]): effective against all investigated cell lines, including the metastatic PC3
antiproliferative effect in screen (DU145 cells [3]): top effective
antiproliferative effect in screen (LNCaP cells [4]): top five KKRs that kept standing out with antiproliferative effects
MAO inhibitory property in MAO screen (hMAO-A): did not have MAO inhibitory properties
MAO inhibitory property in MAO screen (hMAO-B): did not have MAO inhibitory properties
IC50 (PC3 cells [5]): 34 ± 1 µM
IC50 (DU145 cells [6]): 9 ± 0.5 µM
IC50 (LNCaP cells [7]): 21 ± 1 µM
